Source: US20240383973A1, “METHODS FOR TREATING CALCITONIN GENE-RELATED PEPTIDE (CGRP) - EXPRESSING CANCERS” (The Board of Regents of the University of Oklahoma, priority 2022, published 2024)
Entries after “also recorded” stand apart in the source; their conditions may differ.

Legend:
[1] = test system: Py230 triple negative breast cancer cell line; assay: Py230 tumor transplant in B6 mice, BIBN4096 vs DMSO: tumor growth and tumor mass; type: in vivo; details: vs DMSO mock
Description: (§1) B6 mice were transplanted with Py230 tumor cells in the 4th mammary fat pad. Beginning on Day 28 post-transplant, mice were either injected with the CGRP inhibitor BIBN4096 in DMSO (white) or DMSO alone (black). 63 days post-transplant, tumors were isolated and tumor mass (FIG. 2A) determined. Tumors were digested and the ratio of activated CD44^hi CD43^+CD8 T cells to FoxP3^+ Tregs determined (FIG. 2B). PD-1 expression on tumor-isolated CD8+ T cells was measured by flow cytometry (FIG. 2C). Symbols represent individual mice, composite of two experiments. *p<0.05, **p<0.01.
B6 mice were transplanted with Py230 triple negative breast cancer cell line, tumors were measured 3×/week for 63 days. BIBN4096 or DMSO vehicle control (mock) were administered 1×/week starting on day 28 over a period of 4 weeks. Tumor masses were measured at day 63. FIG. 10A. Tumor growth curves of BIBN4096 treated B6 mice and mock treated controls. FIG. 10B. Tumor masses of BIBN4096 treated mice and mock treated controls. (n=10/group), Mann-Whitney Test, *p<0.05.

[2] = test system: tumor infiltrating T cells and B cells; assay: Flow cytometric analysis of tumor-isolated immune cells after BIBN4096 treatment; type: in vivo, mice; details: day 63, flow cytometry; vs mock
Description: as §1
B6 mice were transplanted with Py230 triple negative breast cancer cell line, tumors were measured 3×/week for 63 days. BIBN4096 or DMSO vehicle control (mock) were administered 1×/week starting on day 28 over a period of 4 weeks. Tumor was passed through a 70 µm cell strainer and single cell suspension was stained for flowcytometric analysis. FIG. 11A. BIBN4096 treated mice have a higher ratio of activated CD8^+ T cells to regulatory T cells (T reg) compared to the mock treated controls. FIG. 11B. […] FIG. 11C. […] FIG. 11D. Tumor infiltrating T cell subtypes at day 63 in BIBN4096 and mock treated controls. (n=15 group) Mann-Whitney Test, *p<0.05, **p<0.01, ****p<0.0001, n.s. not significant.

[3] = test system: Py230 murine mammary tumors; assay: Anti-CGRP/anti-PD-1 combination treatment effect on tumor volume and tumor regression; type: in vivo; details: treatment day 28-56, followed to day 70; 10 mice per group
Description: The anti-PD-1 compound is a rat IgG2a anti-mouse PD-1 antibody, clone RMP1-14, obtained from Bio X Cell. The CGRP inhibitor is olcegepant. The isotype control is a rat IgG2a, clone 2A3, raised against human CD25, obtained from Bio X Cell.
Mice were transplanted with Py230 murine mammary tumors in the mammary fat pad. 28 days after tumor implantation the drug treatments were initiated. Treatments were: (1) Mock—isotype control and vehicle control, (2) CGRP inhibitor+isotype control, (3) anti-PD-1+vehicle control, and (4) Combination: CGRP inhibitor+anti-PD-1. Treatments were terminated 56 days after transplantation. The anti-PD-1 compound was a rat IgG2a anti-mouse PD-1 antibody, clone RMP1-14, obtained from Bio X Cell, the CGRP inhibitor was olcegepant, and the isotype control was a rat IgG2a, clone 2A3, raised against human CD25, obtained from Bio X Cell. Tumor volume, as determined by caliper measurement, was measured every other day until day 70 post-transplant. Average tumor mass of 10 individuals across two experiments is depicted (FIG. 4). The results (FIG. 5) also indicated the numbers of mice in the 4 treatment groups that experienced either tumor progression (i.e., continual growth of tumor), tumor stagnation (cessation of growth for at least 3 weeks), or tumor regression (tumor no longer palpable) in each cohort. […]

With NCCCC[C@H](NC(=O)[C@@H](Cc1cc(Br)c(O)c(Br)c1)NC(=O)N1CCC(N2Cc3ccccc3NC2=O)CC1)C(=O)N1CCN(c2ccncc2)CC1 [BIBN4096, Olcegepant] the tumor growth ([1]; B6 mice, Py230, BIBN4096 1x/week from day 28 for 4 weeks, tumors measured for 63 days) was “inhibits tumor growth; also recorded: stops growth of triple negative breast cancer”, the tumor mass ([1]; day 63 post-transplant) was “decreases tumor mass” and the “PD-1 expression on activated CD8+ T cells from tumor” value [2] was “increased expression”. For the same compound, the “ratio of activated CD8+ T cells to regulatory T cells (Treg) in tumor” value [2] was “higher ratio”, the “tumor infiltrating B cells” value [2] was “increased infiltration; also recorded: enhances CD8+ T cell activation and tumor infiltrating B cells” and the “tumor progression (continual growth of tumor), share of tumors” value [3] was “most tumors continued to progress”. For the same compound, the “tumor stagnation (cessation of growth for at least 3 weeks), share of tumors” value [3] was 30%.
